Tests used:
EV-amyloid = biological target: T1, EV-amyloid (Homo sapiens, UniProt P05067, A673V/D672E); assay: Antibody binding to EV-amyloid, ALPHA sandwich assay; conditions: 37° C., 1 hour; G2-10 and anti-NH2-EVEFR antibodies
T1 construct: An Aβ variant peptide similar to Aβ 1-40
Text: Compounds interacting with secretase or antibody binding to the Aβ domain of APP (or an APP variant) nay also be expected to interact with Aβ or related amyloidogenic peptides. An Aβ variant peptide similar to Aβ 1-40, but with Glu and Val replacing the N-terminal two amino acids (hereafter referred to as “EV-amyloid”), as described in WO 02/094985 and US 2003/0200555 A1, was used to assess interactions between benzofurans and amyloid peptide. As with full length APP variant in Example 5, masking of antibody binding sites was used to assay the potential interactions.
The assay was carried out as follows:
• 1. A master mix of EV-amyloid peptide in binding buffer was made as follows: 10650 μL 0.1% bovine serum albumin in phosphate buffered saline, 1200 μL 10× Protease Inhibitor cocktail (Roche, cat # 1836153), 30 μL EV amyloid peptide (4 μM in DMSO). • 2. […] Interaction between EV amyloid and antibody was assessed by quantification of the EV amyloid peptide by antibody sandwich assay using ALPHA detection. • 7. […]
The solutions were incubated at room temperature for 1 hour prior to addition to the EV-amyloid binding reaction. • 8. […] The plate was incubated overnight, in the dark, at room temperature, and antibody binding to EV-amyloid was detected via ALPHA Quest.

APP variant = assay: Antibody-masking ALPHA assay on biotinylated APP variant (Examples 5A/5B); type: binding; conditions: antibody to C-terminal region of Aβ (5A) and LN27 to N-terminal region of APP (5B); pH 4.5, 37° C., 1 hour
Experimental: A biotinylated APP variant (400 nM) was combined with Examples 1-3 under assay conditions (50 mM sodium acetate, pH 4.5; 1x Protease Inhibitor cocktail (Roche cat # 1836153); 100 μg/mL bovine serum albumin, 0.2% CHAPS). Incubations with vehicle, including DMSO (compound diluent), and incubations lacking the APP variant were carried out as controls for each experiment. Each mixture was incubated at 37° C. for 1 hour.
Thereafter, 70 μL of each incubation mixture was placed in its own well of a 96-well plate. 5 μL of 1 M Tris-Cl, pH 8.0 was added to each well to neutralize any binding reaction.
In Example 5A, a mixture of ALPHA beads was prepared from
(1) 20 μg/mL streptavidin donor beads;
(2) 20 μg/mL Protein A acceptor beads (from AlphaScreen General IgG (Protein A) Detection Kit Perkin Elmer Life Sciences; 10,000 pts (Part Number 6760617M)), containing 150 ng/mL of a rabbit polyclonal antibody directed against the C-terminal region of Aβ; and
(3) 0.1 % bovine serum albumin.
The beads were combined in a phosphate buffered saline.
In Example 5B, a mixture of ALPHA beads was prepared from […]
The following day, the plates were read using ALPHAQUEST, to measure the degree of binding of the antibodies. […]

T1 sequence (P05067 672-711 D672E/A673V): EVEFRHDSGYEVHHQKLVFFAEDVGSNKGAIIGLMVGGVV

Row | SMILES | inhibition of antibody binding to EV amyloid (EV-amyloid) | interaction with the APP variant near the antibody binding sites (APP variant)
1 | O=C(O)COc1cc2c(cc1CCCOc1ccccc1)OC(CCc1ccccc1)C2 (stereo not shown) [Example 1, {[6-(3-phenoxypropyl)-2-(2-phenylethyl)-2,3-dihydro-1-benzofuran-5-yl]oxy} acetic acid] | approximately 40% | interacted with the APP variant within its Aβ domain, proximal to the C-terminal binding site
2 | O=C(O)COc1cc2c(cc1CCCOc1ccccc1Cl)OC(CCc1ccccc1)C2 (stereo not shown) [Example 2, {[6-[3-(2chlorophenoxy)propyl)-2-(2-phenylethyl)-2,3-dihydro-1-benzofuran-5-yl]oxy} acetic] | approximately 40% | interacted with the APP variant within its Aβ domain, proximal to the C-terminal binding site
